From patent US6635641B2 (Agouron Pharmaceuticals, Inc., priority 2000, dated 2003)
Where two headings read alike, the source gives them in different places.

Assays:
[1] = target: T1, FGF-R1 intracellular kinase domain (Homo sapiens, UniProt P11362, C488A/C584S/L457V); experiment: FGF-R spectrophotometric assay; format: biochemical; settings: for inhibition at 1 µM: read-out: FGF-P percent inhibition
T1 construct: starting from the endogenous methionine residue 456 to glutamate 766; made in house; host or cells: baculovirus expression system
T1 sequence (P11362 456-766 L457V/C488A/C584S): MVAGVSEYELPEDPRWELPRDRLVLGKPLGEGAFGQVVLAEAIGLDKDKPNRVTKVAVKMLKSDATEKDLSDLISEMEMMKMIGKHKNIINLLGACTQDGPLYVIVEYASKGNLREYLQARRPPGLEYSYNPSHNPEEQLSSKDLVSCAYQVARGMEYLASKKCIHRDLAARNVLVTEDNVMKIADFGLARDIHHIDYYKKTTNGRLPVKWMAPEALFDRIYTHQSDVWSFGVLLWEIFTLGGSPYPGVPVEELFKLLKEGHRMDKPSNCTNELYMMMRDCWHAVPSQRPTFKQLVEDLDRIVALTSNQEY

[2] = target: T2, TEK/Tie-2 intracellular kinase domain (Homo sapiens, UniProt Q02763); experiment: TEK/Tie-2 spectrophotometric assay; format: biochemical; settings: read-out: TEK-P percent inhibition
T2 construct: residues 775 to 1124, with methionine added at the N-terminus; made in house; host or cells: baculovirus expression system
T2 sequence (Q02763 775-1124): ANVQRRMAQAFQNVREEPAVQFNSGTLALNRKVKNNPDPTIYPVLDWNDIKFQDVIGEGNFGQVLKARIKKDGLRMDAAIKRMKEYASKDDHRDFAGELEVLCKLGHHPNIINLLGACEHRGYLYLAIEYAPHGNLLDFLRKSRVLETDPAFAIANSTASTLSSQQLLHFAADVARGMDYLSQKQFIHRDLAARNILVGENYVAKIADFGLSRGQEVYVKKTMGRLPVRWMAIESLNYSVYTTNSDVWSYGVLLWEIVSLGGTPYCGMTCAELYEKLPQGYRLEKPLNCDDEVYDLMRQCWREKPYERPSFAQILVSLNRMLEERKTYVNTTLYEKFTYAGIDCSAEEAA
Protocol: The intracellular kinase domain (residues 775 to 1124, with methionine added at the N-terminus) of human TEK/Tie-2 was expressed using the baculovirus vector expression system. For assay purposes, the enzyme was autophosphorylated prior to use by incubation overnight at 4° C., at 10 μM enzyme concentration, with 4 mM ATP, 40 mM MgCl2, and 5 mM DTT in 200 mM Hepes buffer at ph 7.5, in 90:10 water:glycerol.
The production of ADP from ATP that accompanies phosphoryl transfer was coupled to oxidation of NADH using phosphoenolpyruvate (PEP) and a system having pyruvate kinase (PK) and lactic dehydrogenase (LDH). The oxidation of NADH was monitored by following the decrease of absorbance at 340 nm (e340=6.22 cm^−1 mM^−1) using a Beckman DU 650 spectrophotometer. Assay conditions for phosphorylated VEGF-R2Δ50 (indicated as FLVK-P in the tables below) were the following: 1 mM PEP; 250 μM NADH; 50 units of LDH/mL; 20 units of PK/mL; 5 mM DTT; 5.1 mM poly(E4Y1); 1 mM ATP; and 25 mM MgCl2 in 200 mM Hepes, pH 7.5. Assay conditions for unphosphorylated VEGF-R2Δ50 (indicated as FLVK in the tables) were the following: 1 mM PEP; 250 μM NADH; 50 units of LDH/mL; 20 units of PK/mL; 5 mM DTT; 20 mM poly(E4Y1); 3 mM ATP; and 60 mM MgCl2 and 2 mM MnCl2 in 200 mM Hepes, pH 7.5. Assays were initiated with 5 to 40 nM of enzyme. Ki values were determined by measuring enzyme activity in the presence of varying concentrations of test compounds. The data were analyzed using Enzyme Kinetic and Kaleidagraph software.
The spectrophotometric assay was carried out as described above for VEGF-R2, except for the following changes in concentration: TEK/Tie-2=200 nM, MgCl2=40 mM, and ATP=2 mM.

[3] = system: human umbilical vein endothelial cells (HUVEC); experiment: HUVEC proliferation assay (VEGF-stimulated, MTT); format: cell-based; settings: Homo sapiens
In short: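 Exponentially growing HUVEC (passage 3-4) were serum-starved 24 h in F12K + 1% FBS, given test compound (final DMSO 0.1%), then stimulated 1 h later with VEGF at 6 ng/ml final. Proliferation read after 72 h by 4 h MTT dye reduction, absorbance at 595.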

LCK tyrosine kinase = target: T3, LCK tyrosine kinase (Homo sapiens, UniProt P06239, C224D/P223M); experiment: LCK spectrophotometric assay; format: biochemical; settings: for Ki: read-out: LCK-P Ki; for inhibition at 1 µM: read-out: LCK-P percent inhibition;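 as to all read-outs here: recombinant LCK kinase activity on poly(E4Y1), ADP formation coupled through PK/LDH to NADH oxidation, followed as absorbance loss at 340 nm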
T3 construct: starting from amino acid residue 223 to the end of the protein at residue 509; made in house; host or cells: insect cells
T3 sequence (P06239 223-509 P223M/C224D): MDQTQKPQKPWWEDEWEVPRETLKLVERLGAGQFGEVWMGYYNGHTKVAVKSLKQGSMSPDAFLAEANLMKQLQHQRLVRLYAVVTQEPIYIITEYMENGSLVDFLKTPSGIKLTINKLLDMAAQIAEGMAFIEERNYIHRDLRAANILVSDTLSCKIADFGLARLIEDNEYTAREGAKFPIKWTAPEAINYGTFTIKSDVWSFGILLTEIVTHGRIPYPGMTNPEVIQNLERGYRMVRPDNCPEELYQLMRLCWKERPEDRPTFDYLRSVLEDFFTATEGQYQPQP

[4] = target: T4, unphosphorylated VEGF-R2Δ50 (FLVK) (Homo sapiens, UniProt P35968, DEL940-989/E990V); experiment: VEGF-R2 coupled spectrophotometric assay, unphosphorylated construct (FLVK); format: biochemical;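 also: Baculovirus-expressed cytosolic kinase domain, ADP formation linked via pyruvate kinase and lactate dehydrogenase to NADH oxidation, read as falling absorbance at 340 nm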
T4 construct: VEGF-R2Δ50 contains residues 806-939 and 990-1171; made in house; host or cells: baculovirus/insect cells
T4 sequence (P35968 with tags, fused parts or gaps DEL940-989/E990V limits assumed): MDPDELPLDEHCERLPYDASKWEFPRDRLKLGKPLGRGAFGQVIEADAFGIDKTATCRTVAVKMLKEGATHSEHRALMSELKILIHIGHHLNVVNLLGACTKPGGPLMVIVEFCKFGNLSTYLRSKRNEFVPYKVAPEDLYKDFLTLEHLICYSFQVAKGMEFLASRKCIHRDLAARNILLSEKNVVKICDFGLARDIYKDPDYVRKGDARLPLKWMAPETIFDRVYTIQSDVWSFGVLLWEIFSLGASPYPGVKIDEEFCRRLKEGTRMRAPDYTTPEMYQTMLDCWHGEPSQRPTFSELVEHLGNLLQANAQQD

[5] = system: lung cancer cells (line MV522); experiment: Cancer cell proliferation (MV522) assay (MTT); format: cell-based
In short: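 Proliferation was read by MTT reduction 72 h after compound addition, in a 4-day protocol with no starvation step. Two thousand MV522 cells were seeded in RPMI1640 with 10% FBS and 2 mM glutamine and given 1 day to attach before dosing.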

[6] = target: T5, phosphorylated VEGF-R2Δ50 (FLVK-P) (Homo sapiens, UniProt P35968, DEL940-989/E990V); experiment: VEGF-R2 coupled spectrophotometric assay, phosphorylated construct (FLVK-P); format: biochemical
T5 construct: VEGF-R2Δ50 contains residues 806-939 and 990-1171; made in house; host or cells: baculovirus/insect cells
T5 sequence (P35968 with tags, fused parts or gaps DEL940-989/E990V limits assumed): as above
In short: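 Baculovirus-expressed VEGF-R2Δ50 (residues 806-939/990-1171, E990V), optionally autophosphorylated; ADP formation coupled via PK/LDH to NADH oxidation at 340 nm, pH 7.5 Hepes. FLVK-P: 1 mM ATP, 5.1 mM poly(E4Y1), 25 mM MgCl2; FLVK: 3 mM ATP, 20 mM poly(E4Y1), 60 mM MgCl2, 2 mM MnCl2. Ki from activity over compound concentrations.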

[7] = HUVEC, with albumin, read-out: Huvec + Albumin IC50
[8] = VEGF-stimulated HUVEC proliferation, read-out: HUVEC IC50
[9] = unphosphorylated VEGF-R2 construct
[10] = HUVEC proliferation with albumin, read-out: Huvec + Albumin IC50

SMILES | Ki ([1]; read-out: FGF-P Ki) | inhibition at 1 µM [2] | Ki (LCK tyrosine kinase) | Ki [4] | IC50 ([5]; MV522) | inhibition at 1 µM [1] | melting point | inhibition at 1 µM (LCK tyrosine kinase) | inhibition at 0.05 µM ([4]; @ 50 nM, read-out: FLVK percent inhibition) | Ki [6] | Ki [4, 9] | IC50 ([5]; MV522 lung cancer cells) | IC50 ([3]; HUVEC, read-out: HUVEC IC50) | IC50 [3, 7] | IC50 [3, 8] | IC50 [3, 10]
COc1ccc(Nc2cc(COc3cc(C(=O)Nc4ccc(N5CCCC5)c(C(F)(F)F)c4)ccc3F)[nH]n2)cn1 [Example J-2, 4-Fluoro-3-[5-(6-methoxy-pyridin-3-yl)amino-2H-pyrazol-3-yl]methoxy-N-(4-pyrrolidin-1-yl-3-trifluoromethyl-phenyl)-benzamide] | 57 nM | 17% | 10.5 nM | 0.68 nM | > 10000 nM |  |  |  |  |  |  |  | 26 nM | 180 nM |  | 
O=C(Nc1ccc(N2CCOCC2)c(C(F)(F)F)c1)c1ccc(F)c(OCc2cccnc2)c1 [Example R-12, 4-Fluoro-N-(4-morpholin-4-yl-3-trifluoromethyl-phenyl)-3-(pyridin-3-ylmethoxy)-benzamide] |  |  |  | 4.4 nM | 5900 nM | 62% | 160 to 161 °C | 45% |  |  |  |  | 15 nM |  |  | 
O=C(Nc1cc(Cl)c(N2CCCC2)c(Cl)c1)c1ccc(F)c(OCc2cccnc2)c1 [Example R-11, N-(3,5-Dichloro-4-pyrrolidin-1-yl-phenyl)-4-fluoro-3-(pyridin-3-ylmethoxy)-benzamide] |  |  |  |  |  | 30% | 163 to 167 °C | 59% | 59% |  |  |  | 31 nM |  |  | 
Cc1cc(NC(=O)c2cccc(CCc3cc(Nc4ccccc4)n[nH]3)c2)ccc1C(C)C [Example G-3, N-(4-isopropyl-3-methylphenyl)-3-[2-(5-phenylamino-2H-pyrazol-3-yl)ethyl]benzamide] |  |  | 11.2 nM |  | > 10000 nM | 91% | 150 to 151 °C |  |  | 0.197 nM |  |  | 9.8 nM | 280 nM |  | 
O=C(Nc1ccc(N2CCNCC2)c(C(F)(F)F)c1)c1ccc(F)c(OCc2cccnc2)c1 [Example R-13, 4-Fluoro-N-[4-(piperazin-1-yl)-3-trifluoromethylphenyl]-3-(pyridin-3-yl)methoxybenzamide] |  |  |  | 16.5 nM | 1800 nM | 7% | 123 to 131 °C | 5% |  |  |  |  | 19 nM | 120 nM |  | 
O=C(Nc1ccc(N2CCNCC2)c(C(F)(F)F)c1)c1cccc(CCc2cc(/C=C/c3cccnc3)n[nH]2)c1 [Example F-5] |  | 56% |  | 0.86 nM | 1400 nM | 69% |  | 84% |  |  |  |  | 4.1 nM | 17 nM |  | 
Cc1cc(NC(=O)c2cccc(C3CC3c3cc(Nc4ccccc4)n[nH]3)c2)ccc1C(C)C (stereo not shown) [Example H-1, N-(4-Isopropyl-3-methyl-phenyl)-3-[2-(5-phenylamino-2-H-pyrazol-3-yl)cyclopropyl]-benzamide] |  |  |  | 0.19 nM | > 10000 nM | 83% |  | 41% |  | 1.19 nM |  |  | 27 nM |  |  | 
COc1ccc(Nc2cc(CCc3cccc(C(=O)Nc4ccc(N(C)C)c(C(F)(F)F)c4)c3)[nH]n2)cn1 [Example G-5, N-(4-Dimethylamino-3-trifluoromethylphenyl)-3-{2-[5-(6-methoxypyridin-3-yl)amino-2H-pyrazol-3-yl]ethyl}-benzamide] |  |  | 69 nM | 0.35 nM | > 10000 nM | 68% |  |  |  | 1.86 nM |  |  | 8.4 nM |  |  | 
COc1ccc(Nc2cc(CCc3cccc(C(=O)Nc4ccc(N5CCNCC5)c(C(F)(F)F)c4)c3)[nH]n2)cn1 [Example G-10] |  |  |  | 3 nM | 5100 nM | 33% |  | 48% |  | 2.6 nM |  |  | 5.7 nM | 180 nM |  | 
COc1ccc(/C=C/c2cc(CCc3cccc(C(=O)Nc4ccc(C(C)C)c(C)c4)c3)[nH]n2)cc1OC [Example F-3, 3-(2-{5-[(E)-2-(3,4-Dimethoxyphenyl)ethenyl]-2H-pyrazol-3-yl}-ethyl)-N-(3-methyl-4-isopropylphenyl)-benzamide] |  |  |  | 0.31 nM | > 10000 nM | 83% |  | 84% |  | 1.01 nM |  |  | 10 nM |  |  | 
Cl.O=C(Nc1ccc(N2CCOCC2)c(C(F)(F)F)c1)c1ccc(F)c(OCc2cncc3ccccc23)c1 [Example R-14, 4-Fluoro-N-(4-morpholin-4-yl-3-trifluoromethyl-phenyl)-3-(isoquinolin-4-ylmethoxy)-benzamide] |  |  |  | 3.4 nM | 5700 nM | 96% | 175 to 180 °C | 87% |  |  |  |  | 14 nM | 345 nM |  | 

Second part, led by results:

Ki ([1]; read-out: FGF-P Ki) | inhibition at 1 µM [2] | Ki (LCK tyrosine kinase) | Ki [4] | IC50 ([5]; MV522) | inhibition at 1 µM [1] | melting point | inhibition at 1 µM (LCK tyrosine kinase) | inhibition at 0.05 µM ([4]; @ 50 nM, read-out: FLVK percent inhibition) | Ki [6] | Ki [4, 9] | IC50 ([5]; MV522 lung cancer cells) | SMILES | IC50 ([3]; HUVEC, read-out: HUVEC IC50) | IC50 [3, 7] | IC50 [3, 8] | IC50 [3, 10]
 |  |  |  |  | 18% | 95 to 100 °C | 19% |  |  | 1.5 nM |  | CC(C)(C)c1cc(C(=O)Nc2cccc(SCc3cccnc3)c2)ccc1O [Example W-2, 3-t-Butyl-4-hydroxy-N-[3-(pyridin-3-ylmethylsulfanyl)-phenyl]-benzamide] |  |  | 120 nM | 
 |  |  |  |  | 56% | 205 to 210 °C | 65% |  |  | 0.7 nM |  | CC(C)(C)c1cc(C(=O)Nc2cccc(SCc3cncc4ccccc34)c2)ccc1O.Cl [Example W-3, 3-t-Butyl-4-hydroxy-N-[3-(isoquinolin-4-ylmethylsulfanyl)-phenyl]-benzamide] |  |  | 220 nM | 
 |  |  |  |  | 11% | 104 to 107 °C | 11% |  |  | 4.1 nM | 6100 nM | CC(C)(C)c1cc(C(=O)Nc2cccc(OCc3cccnc3)c2)ccc1O [Example X-4, 3-t-Butyl-4-hydroxy-N-[3-(pyridin-3-ylmethoxy)-phenyl]-benzamide] |  |  | 71 nM | > 1000 nM
 | 40% |  |  |  | 37% |  | 22% |  |  | 0.045 nM |  | CC(C)(C)c1cc(C(=O)Nc2cccc(CSc3ncnc4[nH]ncc34)c2)ccc1O [Example V-4, N-{3-[(1H-pyrazolo[3,4-d]-pyrimidin-4-yl)sulfanylmethyl]phenyl}-(4-hydroxy-3-t-butyl)benzamide] |  |  | 27 nM | > 1000 nM
 |  |  |  |  | 28% | 105 to 111 °C | 59% |  |  | 1.5 nM |  | CC(C)(C)c1cc(C(=O)Nc2cccc(OCc3cncc(Br)c3)c2)ccc1O [Example X-1, N-[3-(5-Bromo-pyridin-3-ylmethoxy)-phenyl]-3-t-butyl-4-hydroxy-benzamide] |  |  | 27 nM | 330 nM
